Laboratory results as given in ChEMBL document CHEMBL1201862, “PubChem BioAssay data set” (2004).
Activity calls are given as the source filed them. Cut-off read from the data, not from the text of the source, for most assays here: actives have a measured EC50 and inactives only a lower limit.

What was measured:
[1] = target: T1, Heat shock factor protein 1 (Mus musculus, UniProt P38532); test: inhibition of MG132-induced HSE-luciferase signal, confirmation, cell-based, NIH3T3, luminescence, dose retest (AID 2382); assay type: functional;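 note: NIH3T3 fibroblasts with HSF1-driven luciferase reporter stressed by proteasome inhibitor MG132; luminescence from HSF1-driven luciferase expression after 8 hours of MG132 stress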
T1 sequence (P38532 whole entry): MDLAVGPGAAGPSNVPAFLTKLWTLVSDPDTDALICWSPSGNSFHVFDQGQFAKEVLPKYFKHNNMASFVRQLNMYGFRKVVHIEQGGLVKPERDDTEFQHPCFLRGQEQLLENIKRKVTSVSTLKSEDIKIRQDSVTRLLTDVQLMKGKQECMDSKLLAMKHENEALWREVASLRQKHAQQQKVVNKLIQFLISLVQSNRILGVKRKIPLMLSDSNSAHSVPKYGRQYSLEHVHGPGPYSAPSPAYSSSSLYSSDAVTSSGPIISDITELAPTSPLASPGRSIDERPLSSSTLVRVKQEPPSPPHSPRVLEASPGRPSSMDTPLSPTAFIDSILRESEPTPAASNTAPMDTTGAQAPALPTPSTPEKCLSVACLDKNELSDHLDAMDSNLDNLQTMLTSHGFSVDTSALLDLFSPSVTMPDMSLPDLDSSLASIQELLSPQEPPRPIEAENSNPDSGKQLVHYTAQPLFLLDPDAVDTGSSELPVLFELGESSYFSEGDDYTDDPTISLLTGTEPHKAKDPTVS

[2] = target: T1, Heat shock factor protein 1; test: HSF1 potentiators in luciferase reporter cells, confirmation, cell-based, NIH3T3, luminescence, dose retest (AID 435004); assay type: functional;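 note: stress induced by proteasome inhibitor MG132 added 30 min after compound; luciferase reporter driven by HSF1 response element in NIH3T3 cells; actives raise luminescence as potentiators of the MG132 stress response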
[3] = Luminescence Cell-Based Dose Retest to Confirm Inhibitors of Cancer Stem Cells. [Related pubchem assays (depositor defined):AID2717, AID2721]; assay type: functional; conditions: Homo sapiens
[4] = test system: Streptococcus sp. 'group A'; test: growth inhibition of control SK(-) GAS strain, dose response, counter-screen for streptokinase expression inhibitor project, luminescence, kanamycin, BacTiterGlo, confirmation (AID 1900); assay type: functional, organism-based
Streptokinase A = target: T2, Streptokinase A (Streptococcus pyogenes serotype M1, UniProt P10520); test: S. pyogenes streptokinase expression inhibitors, potency, dose response, plasminogen activation absorbance, OD405 (AID 1914); assay type: functional, Streptococcus pyogenes M1 GAS;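 note: secreted streptokinase activity via plasminogen activation per viability signal from cell pellet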
T2 sequence (P10520 whole entry): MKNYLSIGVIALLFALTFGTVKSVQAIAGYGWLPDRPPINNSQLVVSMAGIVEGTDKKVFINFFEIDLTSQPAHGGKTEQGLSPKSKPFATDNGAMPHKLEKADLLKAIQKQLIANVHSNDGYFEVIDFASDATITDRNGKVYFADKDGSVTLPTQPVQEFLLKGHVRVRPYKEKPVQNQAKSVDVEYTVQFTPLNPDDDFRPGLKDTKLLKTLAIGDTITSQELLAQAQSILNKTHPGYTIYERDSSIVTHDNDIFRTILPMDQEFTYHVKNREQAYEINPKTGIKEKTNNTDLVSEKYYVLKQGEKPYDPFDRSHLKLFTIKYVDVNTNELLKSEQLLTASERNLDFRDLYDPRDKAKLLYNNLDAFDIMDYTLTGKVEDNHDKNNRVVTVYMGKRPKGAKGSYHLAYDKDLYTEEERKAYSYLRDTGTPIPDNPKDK

Streptococcus = test: Group A Streptococcus viability loss, dose response, counter-screen for streptokinase expression inhibitor project, luminescence, BacTiterGlo (AID 1915); assay type: functional, organism-based;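 note: potency for reduction of bacterial viability or growth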
[5] = HEp-2 cell cytotoxicity, dose response, cytotoxicity control for RSV inhibitor project, HTS (AID 2410); assay type: functional; conditions: human respiratory syncytial virus
[6] = inhibitors of intracellular T. cruzi replication, confirmation, NIH3T3 host cells, beta-gal luminescence (AID 2044); assay type: functional, cell-based;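 note: intracellular parasites grown in NIH/3T3 mouse fibroblasts as host cells; luminescent beta-galactosidase reporter signal from transgenic T. cruzi replicating inside host cells; inhibitors lower the luminescence signal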
[7] = cytotoxicity toward NIH3T3 fibroblasts, dose response, counter-screen, cell-based, ATP luminescence, mouse fibroblasts (AID 2010); assay type: functional;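 note: cells exposed to compound for about 90 hours before reading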
Cytochrome P450 1A2 = target: T3, Cytochrome P450 1A2 (Homo sapiens, UniProt P05177);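 note: PubChem cytochrome P450 panel assay, CYP1A2 panel member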
T3 sequence (P05177 whole entry): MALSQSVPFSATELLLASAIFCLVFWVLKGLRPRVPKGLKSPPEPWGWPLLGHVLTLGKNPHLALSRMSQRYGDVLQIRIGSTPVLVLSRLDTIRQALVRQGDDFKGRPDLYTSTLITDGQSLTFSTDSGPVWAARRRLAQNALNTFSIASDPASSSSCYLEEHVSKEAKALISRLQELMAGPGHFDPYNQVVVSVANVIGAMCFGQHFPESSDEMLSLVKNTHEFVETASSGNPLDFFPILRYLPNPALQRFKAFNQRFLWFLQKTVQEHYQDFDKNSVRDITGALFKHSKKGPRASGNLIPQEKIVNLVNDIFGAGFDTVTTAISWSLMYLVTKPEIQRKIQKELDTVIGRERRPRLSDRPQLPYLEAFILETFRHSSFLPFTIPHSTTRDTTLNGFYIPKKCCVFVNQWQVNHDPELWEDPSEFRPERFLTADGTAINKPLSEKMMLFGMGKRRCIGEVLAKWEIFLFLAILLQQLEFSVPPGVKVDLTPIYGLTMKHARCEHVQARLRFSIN

## CN(C(=O)CN1C(=O)S/C(=C\c2ccccc2)C1=O)C1CCS(=O)(=O)C1 (stereo not given)
[1]
  EC50: > 195 µM (not active)

## Cc1ccccc1C(=O)NC[C@@H]1CCCN2CCCC[C@H]12
[1]
  EC50: 18.6 µM (active)

## CC(=O)N1c2ccc(C)cc2C(c2ccccc2)CC1C (stereo not given)
[2]
  EC50: > 260 µM (inactive)

## Nc1nc(CSC(=S)N2CCCCC2)nc(Nc2ccccc2)n1
[1]
  EC50: > 195 µM (not active)

## CC(NNc1ccccc1)=C1C(=O)N(C)C(=O)N(C)C1=O
[3]
  AC50: 1.81 µM (active)

## Cc1ccc(C)c(S(=O)(=O)c2c(N)n(/N=C/c3ccco3)c3nc4ccccc4nc23)c1
[2]
  EC50: > 260 µM (inactive)

## COc1cccc(CN2CC(C(=O)NCc3ccc(C)o3)CCC2=O)c1 (stereo not given)
[2]
  EC50: > 260 µM (inactive)

## O=C(NCC1(N2CCCCC2)CCCCC1)c1cccc(NS(=O)(=O)c2ccccc2)c1
[4]
  EC50: > 150 µM (not active)
Streptokinase A
  EC50: > 150 µM (not active)
Streptococcus
  EC50: > 150 µM (not active)

## CCN1C(=O)C(CC(=O)Nc2ccc(OC)cc2)N(CCCN2CCN(c3ccc(F)cc3)CC2)C1=S (stereo not given)
[3]
  AC50: 5.53 µM (active)

## CSc1cccc(NS(=O)(=O)c2cc(Br)cnc2N)c1
[1]
  EC50: > 195 µM (not active)

## CCC(C)c1ccc(OCc2ccc(C(=O)O)o2)cc1 (stereo not given)
[1]
  EC50: 18.7 µM (inconclusive)

## O=S(=O)(NCCSCc1c(Cl)cccc1Cl)c1ccc2c(c1)OCCO2
[4]
  EC50: 11.6 µM (active)
Streptokinase A
  EC50: > 150 µM (not active)
Streptococcus
  EC50: 24.5 µM (active)

## O=[N+]([O-])c1cc(C(F)(F)F)ccc1NCCc1c[nH]c2ccccc12
[3]
  AC50: 4.48 µM (active)

## Cc1ccc(-c2nc(-c3cccnc3)sc2CC(=O)Nc2ccc3nc(C)sc3c2)cc1
[1]
  EC50: > 195 µM (not active)

## CC1CCCCN1c1nc(-c2ccncc2)nc2ccccc12 (stereo not given)
[5]
  CC50: 44.4 µM (active)
[6]
  EC50: 0.576 µM (active)
[7]
  EC50: > 30 µM (not active)

## O=c1c(/C=N\NS(=O)(=O)c2ccccc2)coc2ccc(Cl)cc12
[1]
  EC50: 44.5 µM (active)

## Cc1ccc(C)c(NC(=O)CS(=O)(=O)c2cn(C)c3ccccc23)c1
[2]
  EC50: > 260 µM (inactive)

## O=C(Nc1nc2ccccc2n1CCOc1ccccc1)c1ccco1
[4]
  EC50: 4.16 µM (active)
Streptokinase A
  EC50: > 150 µM (not active)
Streptococcus
  EC50: 9.64 µM (active)

## CCCCCCSc1cccc(-c2nc3cc(C)ccn3c2NC2CCCCC2)c1
[3]
  AC50: 4.23 µM (active)

## CCCC/C(C)=C/[C@@H](NP(=O)(c1ccccc1)c1ccccc1)c1ccccc1
[3]
  AC50: 6.1 µM (active)

## Nc1ccc(S(=O)(=O)N2CCC(Cc3ccccc3)CC2)cc1
[1]
  EC50: > 195 µM (not active)

## C=CCNc1cc(C)oc(=O)c1C(=O)CCC
[1]
  EC50: > 195 µM (not active)

## CSc1sc(C(=O)OC(C)C)c2c1C(=O)CC(C)(C)C2
[2]
  EC50: > 260 µM (inactive)

## O=C(NNc1ccccc1)C(=O)N1CCCCC1
[3]
  AC50: 1.03 µM (active)

## CCN(c1ccc(NC(=O)CCc2nc(O)c3c4c(sc3n2)CCCC4)cc1)C(C)C
[3]
  AC50: 4.71 µM (active)

## O=C(Nc1ccc(C(=O)NCc2ccc(F)cc2)cc1)C1=CSCCO1
[4]
  EC50: > 150 µM (not active)
Streptokinase A
  EC50: > 150 µM (not active)
Streptococcus
  EC50: > 150 µM (not active)

## O=C1c2ccccc2C(Nc2ccc3c(c2)OCCO3)N1c1ccc(Cl)cn1 (stereo not given)
[1]
  EC50: > 195 µM (not active)

## Cc1ccc(Oc2ccc3c(c2)C(=O)N(c2cccc4cccnc24)C3=O)cc1
[4]
  EC50: 25.6 µM (active)
Streptokinase A
  EC50: 25.3 µM (active)
Streptococcus
  EC50: > 150 µM (not active)

## COc1ccc(-c2ccc(-c3noc(-c4ccccc4)n3)c(OC)n2)cc1
[5]
  CC50: 36.4 µM (active)

## O=C(CN1CCCC1)Nc1c2c(cc3c1CCC3)CCC2
[1]
  EC50: > 195 µM (not active)

## COC1CCCN(C(=O)c2ccc(OC3CCN(CCc4ccccc4)CC3)cc2)C1 (stereo not given)
[1]
  EC50: > 195 µM (not active)

## Cc1ccc(N2CCN(C(=O)C3CCCN(c4ncnc5c4nc4n5CCCCC4)C3)CC2)c(C)c1 (stereo not given)
[5]
  CC50: 9.35 µM (active)

## COc1cccc(-c2cc3nc4c(c(N5CCC6(CC5)OCCO6)n3n2)CCCC4)c1
[3]
  AC50: 4.89 µM (active)

## O=C(CSC(=S)N1CCCCC1)Nc1ncc2c(n1)CCCC2=O
[1]
  EC50: > 195 µM (not active)

## CC1CCN(CC(=O)c2cccs2)CC1
[1]
  EC50: > 195 µM (not active)

## CCCCC/C=C\C/C=C\C/C=C\C/C=C\CCCC(=O)Nc1ccc(O)cc1
[4]
  EC50: 0.827 µM (active)
Streptokinase A
  EC50: > 150 µM (inconclusive)
Streptococcus
  EC50: 3.32 µM (active)
Cytochrome P450 1A2
  AC50: 20 µM (inconclusive)

## COc1ccccc1-c1cc(=O)c2c(O)ccc([N+](=O)[O-])c2o1
[4]
  EC50: 1.4 µM (active)
Streptokinase A
  EC50: > 150 µM (not active)
Streptococcus
  EC50: 10.4 µM (active)

## CCS(=O)(=O)N1Cc2ccccc2CC1C(=O)Nc1nnc(SCc2ccc(C#N)cc2)s1 (stereo not given)
[4]
  EC50: 16.1 µM (active)
Streptokinase A
  EC50: > 150 µM (not active)
Streptococcus
  EC50: 94.3 µM (active)

## Cc1cc(/C=C2\SC(=S)N(Cc3ccco3)C2=O)c(C)n1-c1ccccc1
[1]
  EC50: 1.57 µM (active)
[3]
  AC50: 2.2 µM (active)

## CC(C)(C)NC(=O)C1CC2CCCCC2CN1 (stereo not given)
[4]
  EC50: > 150 µM (not active)
Streptokinase A
  EC50: > 150 µM (not active)
Streptococcus
  EC50: > 150 µM (not active)

## CCOC(=O)Cn1c(=O)oc2cc(S(=O)(=O)NCCC(C)C)ccc21
[1]
  EC50: > 195 µM (not active)

## COc1ccc(S(=O)(=O)N/N=C(/C)c2ccncc2)cc1
[4]
  EC50: > 150 µM (not active)
Streptokinase A
  EC50: > 150 µM (not active)
Streptococcus
  EC50: > 150 µM (not active)

## N#Cc1ccc(C(=O)Nc2nc(SCc3ccc(Cl)cc3)n[nH]2)cc1
[4]
  EC50: 1.97 µM (active)
Streptokinase A
  EC50: > 150 µM (not active)
Streptococcus
  EC50: > 150 µM (not active)

## NS(=O)(=O)c1cc2c(cc1Cl)NCNS2(=O)=O [HYDROCHLOROTHIAZIDE]
[1]
  EC50: > 195 µM (not active)

## CC1(C)Cc2ccccc2-c2nnc(S)n21
[5]
  CC50: 31.5 µM (active)

## Cc1ccc(NC(=S)Nc2cccc3ccccc23)cc1
[1]
  EC50: > 195 µM (not active)

## O=C(Nc1ccccc1)c1ccc2c(c1)CCN2S(=O)(=O)c1ccccc1
[5]
  CC50: 16 µM (active)

## CCN(CC)CCSc1nnc2c3ccccc3n(Cc3ccccc3)c2n1
[6]
  EC50: 0.284 µM (active)
[7]
  EC50: > 60 µM (not active)
[3]
  AC50: 0.829 µM (active)

## COc1cccc(N=Nc2c(N)nn3c(O)cc(-c4ccccc4)nc23)c1
[4]
  EC50: 2.27 µM (active)
Streptokinase A
  EC50: > 150 µM (not active)
Streptococcus
  EC50: 31.3 µM (active)

## CC(C)Nc1nc(Oc2cccc(Cl)c2Cl)cc(C(F)(F)F)n1
[4]
  EC50: 6.13 µM (active)
Streptokinase A
  EC50: > 150 µM (not active)
Streptococcus
  EC50: 8.83 µM (active)

## COc1ccccc1NC(=O)CSc1nc2nnc(C)c-2c(N)n1-c1ccccc1Cl
[5]
  CC50: 16.8 µM (active)

## COc1cc(/C=N/N2CCN(Cc3ccccc3)CC2)cc(OC)c1OC(C)=O
[1]
  EC50: > 195 µM (not active)

## CC(C)Cc1nnc(NC(=O)CCC(=O)N2CCN(c3ccccc3)CC2)s1
[4]
  EC50: > 150 µM (not active)
Streptokinase A
  EC50: > 150 µM (not active)
Streptococcus
  EC50: > 150 µM (not active)

## Cc1cc(C)c(OCC(=O)N2CCN(c3ncc(C(F)(F)F)cc3Cl)CC2)c(C)c1
[4]
  EC50: 12.8 µM (active)
Streptokinase A
  EC50: 7.69 µM (active)
Streptococcus
  EC50: 23.8 µM (active)
